Experiments:
[1] = (§1) The drug is tested on Z-020 corresponding to rabbit gut metagenome with ENA study accession number: PRJEB37062 and ENA sample accession number: ERS12561819 for biotransformation under anaerobic condition. The drug concentrations were measured over 9 timepoints collected between 0 and 24 hours of incubation by liquid-chromatography-coupled mass spectrometry (LC–MS); conditions: 2 µM
[2] = human gut metagenome, 24 h, 2 µM
[3] = human gut metagenome, 24 h, 2 µM; remark: listed apart in the source
[4] = human gut metagenome, 24 h, 2 µM; remark: listed apart in the source
[5] = human gut metagenome, 24 h, 2 µM; remark: listed apart in the source
[6] = as §1, with “WLS-038” for “Z-020”, “human” for “rabbit”, “ERS12561745” for “ERS12561819”; conditions: 2 µM
[7] = human gut metagenome, 24 h, 2 µM; remark: listed apart in the source
[8] = human gut metagenome, 24 h, 2 µM; remark: listed apart in the source
[9] = human gut metagenome, 24 h, 2 µM; remark: listed apart in the source
[10] = as §1, with “Z-003” for “Z-020”, “pig” for “rabbit”, “ERS12561803” for “ERS12561819”; conditions: 2 µM
[11] = as §1, with “WLS-370” for “Z-020”, “human” for “rabbit”, “ERS12561793” for “ERS12561819”; conditions: 2 µM
[12] = human gut metagenome, 24 h, 2 µM; remark: listed apart in the source
[13] = human gut metagenome, 24 h, 2 µM; remark: listed apart in the source
[14] = as §1, with “Z-005” for “Z-020”, “to” for “to rabbit gut”, “ERS12561805” for “ERS12561819”; conditions: 2 µM
[15] = human gut metagenome, 24 h, 2 µM; remark: listed apart in the source
[16] = human gut metagenome, 24 h, 2 µM; remark: listed apart in the source
[17] = as §1, with “WLS-098” for “Z-020”, “human” for “rabbit”, “ERS12561754” for “ERS12561819”; conditions: 2 µM
[18] = human gut metagenome, 24 h, 2 µM; remark: listed apart in the source
[19] = as §1, with “WLS-090” for “Z-020”, “human” for “rabbit”, “ERS12561753” for “ERS12561819”; conditions: 2 µM
[20] = as §1, with “Z-009” for “Z-020”, “pig” for “rabbit”, “ERS12561809” for “ERS12561819”; conditions: 2 µM
Also: call rule not given here.

| SMILES | Bacterial Biotransformation [1] | Bacterial Biotransformation [2] | Bacterial Biotransformation [3] | Bacterial Biotransformation [4] | Bacterial Biotransformation [5] | Bacterial Biotransformation [6] | Bacterial Biotransformation [7] | Bacterial Biotransformation [8] | Bacterial Biotransformation [9] | Bacterial Biotransformation [10] | Bacterial Biotransformation [11] | Bacterial Biotransformation [12] | Bacterial Biotransformation [13] | Bacterial Biotransformation [14] | Bacterial Biotransformation [15] | Bacterial Biotransformation [16] | Bacterial Biotransformation [17] | Bacterial Biotransformation [18] | Bacterial Biotransformation [19] | Bacterial Biotransformation [20] |
| --- | --- | --- | --- | --- | --- | --- | --- | --- | --- | --- | --- | --- | --- | --- | --- | --- | --- | --- | --- | --- |
| Clc1cccc(Cl)c1N=C1NCCN1 [CLONIDINE] | Compound metabolized | Compound NOT metabolized | Compound metabolized | Compound NOT metabolized | Compound NOT metabolized | Compound NOT metabolized | Compound metabolized | Compound NOT metabolized | Compound metabolized | Compound metabolized | Compound NOT metabolized | Compound NOT metabolized | Compound NOT metabolized | Compound NOT metabolized | Compound metabolized | Compound metabolized | Compound metabolized | Compound metabolized | Compound metabolized | Compound metabolized |
| COC(=O)[C@H](c1ccccc1Cl)N1CCc2sccc2C1.O=S(=O)(O)O [CLOPIDOGREL BISULFATE] | Compound metabolized | Compound metabolized | Compound metabolized | Compound NOT metabolized | Compound metabolized | Compound metabolized | Compound metabolized | Compound metabolized | Compound metabolized | Compound metabolized | Compound metabolized | Compound metabolized | Compound metabolized | Compound metabolized | Compound metabolized | Compound metabolized | Compound metabolized | Compound metabolized | Compound metabolized | Compound metabolized |
| O=P1(N(CCCl)CCCl)NCCCO1 (stereo not given) [CYCLOPHOSPHAMIDE ANHYDROUS] | Compound NOT metabolized | Compound NOT metabolized | Compound metabolized | Compound NOT metabolized | Compound NOT metabolized | Compound NOT metabolized | Compound NOT metabolized | Compound NOT metabolized | Compound NOT metabolized | Compound NOT metabolized | Compound NOT metabolized | Compound NOT metabolized | Compound NOT metabolized | Compound NOT metabolized | Compound metabolized | Compound metabolized | Compound metabolized | Compound metabolized | Compound metabolized | Compound metabolized |
| Br.COc1ccc2c(c1)[C@]13CCCC[C@@H]1[C@H](C2)N(C)CC3.O [DEXTROMETHORPHAN HYDROBROMIDE] | Compound metabolized | Compound NOT metabolized | Compound metabolized | Compound NOT metabolized | Compound NOT metabolized | Compound NOT metabolized | Compound metabolized | Compound NOT metabolized | Compound metabolized | Compound metabolized | Compound metabolized | Compound NOT metabolized | Compound NOT metabolized | Compound NOT metabolized | Compound metabolized | Compound metabolized | Compound metabolized | Compound metabolized | Compound metabolized | Compound metabolized |
| CC(=O)Nc1ccc(OC(C)=O)cc1 [DIACETAMATE] | Compound metabolized | Compound metabolized | Compound metabolized | Compound metabolized | Compound metabolized | Compound metabolized | Compound metabolized | Compound metabolized | Compound metabolized | Compound metabolized | Compound metabolized | Compound metabolized | Compound metabolized | Compound metabolized | Compound metabolized | Compound metabolized | Compound metabolized | Compound metabolized | Compound metabolized | Compound metabolized |
| CCN(CC)CCOC(=O)C1(C2CCCCC2)CCCCC1 [DICYCLOMINE] | Compound NOT metabolized | Compound NOT metabolized | Compound metabolized | Compound metabolized | Compound NOT metabolized | Compound NOT metabolized | Compound NOT metabolized | Compound metabolized | Compound NOT metabolized | Compound NOT metabolized | Compound NOT metabolized | Compound NOT metabolized | Compound NOT metabolized | Compound NOT metabolized | Compound metabolized | Compound metabolized | Compound NOT metabolized | Compound metabolized | Compound metabolized | Compound metabolized |
| COc1ccc([C@@H]2Sc3ccccc3N(CCN(C)C)C(=O)[C@@H]2OC(C)=O)cc1 [DILTIAZEM] | Compound metabolized | Compound metabolized | Compound metabolized | Compound NOT metabolized | Compound NOT metabolized | Compound NOT metabolized | Compound metabolized | Compound metabolized | Compound metabolized | Compound metabolized | Compound metabolized | Compound metabolized | Compound NOT metabolized | Compound NOT metabolized | Compound metabolized | Compound metabolized | Compound metabolized | Compound metabolized | Compound metabolized | Compound metabolized |
| OCCN(CCO)c1nc(N2CCCCC2)c2nc(N(CCO)CCO)nc(N3CCCCC3)c2n1 [DIPYRIDAMOLE] | Compound NOT metabolized | Compound NOT metabolized | Compound metabolized | Compound metabolized | Compound NOT metabolized | Compound NOT metabolized | Compound NOT metabolized | Compound NOT metabolized | Compound metabolized | Compound metabolized | Compound metabolized | Compound metabolized | Compound NOT metabolized | Compound metabolized | Compound metabolized | Compound metabolized | Compound metabolized | Compound NOT metabolized | Compound metabolized | Compound metabolized |
| COc1cc2nc(N3CCN(C(=O)C4COc5ccccc5O4)CC3)nc(N)c2cc1OC.CS(=O)(=O)O (stereo not given) [DOXAZOSIN MESYLATE] | Compound NOT metabolized | Compound NOT metabolized | Compound metabolized | Compound NOT metabolized | Compound metabolized | Compound metabolized | Compound NOT metabolized | Compound NOT metabolized | Compound NOT metabolized | Compound NOT metabolized | Compound metabolized | Compound metabolized | Compound NOT metabolized | Compound metabolized | Compound metabolized | Compound metabolized | Compound metabolized | Compound metabolized | Compound metabolized | Compound NOT metabolized |

From ChEMBL document CHEMBL5724914, “Linking interpersonal differences in gut microbiota composition and drug biotransformation activity” (2024)
